According to US20250034167A1, “HETEROCYCLIC COMPOUNDS AND METHODS OF USE” (AMGEN INC., priority 2021, published 2025):

Target: His-tagged KRAS G12D protein (Homo sapiens, UniProt P01116, G12D)
Assay: biochemical

His-tagged KRAS G12D protein, sequence (P01116 1-188 isoform P01116-2 G12D): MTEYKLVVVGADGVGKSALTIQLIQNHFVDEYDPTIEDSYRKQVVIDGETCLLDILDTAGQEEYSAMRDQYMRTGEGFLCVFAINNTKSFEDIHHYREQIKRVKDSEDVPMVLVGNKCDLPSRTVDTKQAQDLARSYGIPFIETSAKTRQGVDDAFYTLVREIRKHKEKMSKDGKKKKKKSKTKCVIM

SMILES	IC50 [nM]
CCc1c(F)ccc2cc(O)cc(-c3ncc4c(N5C[C@H]6OCC[C@H]65)nc(OC[C@@]56CCCN5C[C@H](F)C6)nc4c3F)c12 (relative stereo) [Example 21, rel-4-(4-((1R,5R)-2-Oxa-6-azabicyclo[3.2.0]heptan-6-yl)-8-fluoro-2-(((2R,7aS)-2-fluorotetrahydro-1H-pyrrolizin-7a(5H)-yl)methoxy)pyrido[4,3-d]pyrimidin-7-yl)-5-ethyl-6-fluoronaphthalen-2-ol]	32
CCc1c(F)ccc2cc(O)cc(-c3ncc4c(N5CCC[C@H]6NC(=O)C[C@H]65)nc(OC[C@@]56CCCN5C[C@H](F)C6)nc4c3F)c12 (relative stereo) [Example 63, rel-(3aR,7aR)-4-(7-(8-Ethyl-7-fluoro-3-hydroxynaphthalen-1-yl)-8-fluoro-2-(((2R,7aS)-2-fluorotetrahydro-1H-pyrrolizin-7a(5H)-yl)methoxy)pyrido[4,3-d]pyrimidin-4-yl)octahydro-2H-pyrrolo[3,2-b]pyridin-2-one]	39
CCc1c(F)ccc2cc(O)cc(-c3ncc4c(N5CC6CCC(C(N)=O)(C6)C5)nc(OC[C@@]56CCCN5C[C@H](F)C6)nc4c3F)c12 (relative stereo) [Example 121, 3-(7-(8-Ethyl-7-fluoro-3-hydroxynaphthalen-1-yl)-8-fluoro-2-(((2R,7aS)-2-fluorotetrahydro-1H-pyrrolizin-7a(5H)-yl)methoxy)pyrido[4,3-d]pyrimidin-4-yl)-3-azabicyclo[3.2.1]octane-1-carboxamide]	6

Further molecules by falling IC50, results first:

IC50 [nM]	SMILES
47	CCc1c(F)ccc2cc(O)cc(-c3ncc4c(N5C6CCC(C(N)=O)C5CC6)nc(OC[C@@]56CCCN5C[C@H](F)C6)nc4c3F)c12 (relative stereo) [Example 123, rac-(15,5S)-8-(7-(8-Ethyl-7-fluoro-3-hydroxynaphthalen-1-yl)-8-fluoro-2-(((2R,7aS)-2-fluorotetrahydro-1H-pyrrolizin-7a(5H)-yl)methoxy)pyrido[4,3-d]pyrimidin-4-yl)-8-azabicyclo[3.2.1]octane-2-carboxamide]
40	CCc1c(F)ccc2cc(O)cc(-c3ncc4c(N5CCC6OCCC6C5)nc(OC[C@@]56CCCN5C[C@H](F)C6)nc4c3F)c12 (relative stereo) [Example 62, 5-Ethyl-6-fluoro-4-(8-fluoro-2-(((2R,7aS)-2-fluorotetrahydro-1H-pyrrolizin-7a(5H)-yl)methoxy)-4-rel-((3aR,7aS)-hexahydrofuro[3,2-c]pyridin-5(4H)-yl)pyrido[4,3-d]pyrimidin-7-yl)naphthalen-2-ol]
6	CCc1c(F)ccc2cc(O)cc(-c3ncc4c(N5C[C@@H](C(N)=O)CC[C@H]5C)nc(OC[C@@]56CCCN5C[C@H](F)C6)nc4c3F)c12 (relative stereo) [Example 64, rel-(3S,6R)-1-(7-(8-Ethyl-7-fluoro-3-hydroxynaphthalen-1-yl)-8-fluoro-2-(((2R,7aS)-2-fluorotetrahydro-1H-pyrrolizin-7a(5H)-yl)methoxy)pyrido[4,3-d]pyrimidin-4-yl)-6-methylpiperidine-3-carboxamide]
5	CCc1c(F)ccc2cc(O)cc(-c3ncc4c(N5CC6CNC(=O)C6C5)nc(OC[C@@]56CCCN5C[C@H](F)C6)nc4c3F)c12 (relative stereo) [Example 61, rel-(3aR,6aS)-5-(7-(8-Ethyl-7-fluoro-3-hydroxynaphthalen-1-yl)-8-fluoro-2-(((2R,7aS)-2-fluorotetrahydro-1H-pyrrolizin-7a(5H)-yl)methoxy)pyrido[4,3-d]pyrimidin-4-yl)hexahydropyrrolo[3,4-c]pyrrol-1(2H)-one]
4	CCc1c(F)ccc2cc(O)cc(-c3ncc4c(N5CC[C@H]6CNC(=O)[C@H]6C5)nc(OC[C@@]56CCCN5C[C@H](F)C6)nc4c3F)c12 (relative stereo) [Example 103, rel-(3aR,7aR)-5-(7-(8-Ethyl-7-fluoro-3-hydroxynaphthalen-1-yl)-8-fluoro-2-(((2R,7aS)-2-fluorotetrahydro-1H-pyrrolizin-7a(5H)-yl)methoxy)pyrido[4,3-d]pyrimidin-4-yl)octahydro-3H-pyrrolo[3,4-c]pyridin-3-one]
